# Laboratory results reported in the NIST ThermoML archive (doi:10.1021/je100253m).
# Numbers after ± are expanded uncertainties.
# Settings: Ring tensiometer
SMILES,surface tension liquid-gas (293.15 K) [mN/m],surface tension liquid-gas (303.15 K) [mN/m],surface tension liquid-gas (313.15 K) [mN/m],surface tension liquid-gas (323.15 K) [mN/m],surface tension liquid-gas (333.15 K) [mN/m],surface tension liquid-gas (343.15 K) [mN/m]
CCCCCCCCCCCCCC[P+](CCCCCC)(CCCCCC)CCCCCC.O=S(=O)([N-]S(=O)(=O)C(F)(F)F)C(F)(F)F,30.75 ± 0.46,30.25 ± 0.46,29.52 ± 0.45,28.87 ± 0.44,28.21 ± 0.43,27.59 ± 0.42
CCCCn1cc[n+](C)c1C.O=S(=O)([N-]S(=O)(=O)C(F)(F)F)C(F)(F)F,37.4 ± 0.55,35.54 ± 0.52,33.83 ± 0.5,32.2 ± 0.48,30.49 ± 0.46,28.74 ± 0.44
CCCC[N+]1(C)CCCC1.O=S(=O)([N-]S(=O)(=O)C(F)(F)F)C(F)(F)F,34.93 ± 0.51,34.35 ± 0.51,33.65 ± 0.5,33.17 ± 0.49,32.61 ± 0.48,31.96 ± 0.48
CCC[N+]1(C)CCCC1.O=S(=O)([N-]S(=O)(=O)C(F)(F)F)C(F)(F)F,32.54 ± 0.48,31.95 ± 0.48,31.5 ± 0.47,31 ± 0.46,30.47 ± 0.46,29.97 ± 0.45
"CCn1cc[n+](CC)c1.O=S(=O)([N-]S(=O)(=O)C(F)(F)F)C(F)(F)F [1,3-diethylimidazolium bis[(trifluoromethyl)sulfonyl]imide]",35.76 ± 0.52,35.37 ± 0.52,34.94 ± 0.51,34.56 ± 0.51,34.15 ± 0.5,33.7 ± 0.5
CCC[n+]1cccc(C)c1.O=S(=O)([N-]S(=O)(=O)C(F)(F)F)C(F)(F)F,36 ± 0.53,35.53 ± 0.52,35.1 ± 0.52,34.53 ± 0.51,34.05 ± 0.5,33.55 ± 0.5
